Assay results from BindingDB's records for patent US12110299 (Yungjin Pharm., 2024).

Molecular target: Cyclin-dependent kinase 7 (Homo sapiens, UniProt P50613)
Test: CDK7 Kinase Activity Assay
Procedure: Representative compounds of the present invention were assayed in vitro for CDK7 kinase-inhibitory activities using ADP-Glo platform. In detail, CDK7 kinase-inhibitory activity was measured using recombinant purified human CDK7 kinase (ThermoFisher, PV3868) and ADP Glo kinase assays kit (Promega, V9102). CDK7 kinase was diluted with 1× kinase reaction buffer (40 mM Tris-C1, pH 7.5, 20 mM MgCl2, 0.1 mg/ml BSA and 50 [M DTT) and added to 96 well plates (final concentration of CDK7 per reaction: 50 ng). The compound was finally treated to be a 1% DMSO aqueous solution, and a substrate cocktail containing ATP (final concentration of 90 [M) and 0.2 μg/μl of MBP (Myelin basic protein) in a total of 25 μl of reaction mass was added to 96 well plates, thereby initiating an enzymatic reaction. After 2 hours of incubation (30° C.), equivalent volume (25 μl per reaction) of ADP Glo was added and incubated (30° C.) at room temperature for 60 minutes. […] The kinase activity was measured by chemiluminescence method according to ADP Glo Kanease Assay Kit instruction manual, and the CDK7-inhibitory activity of the compounds according to the present invention was calculated. The result analysis of each compound was performed using Microsoft Excel, and IC50 values were calculated by Prism software.

Chain of Cyclin-dependent kinase 7 (P50613 whole entry): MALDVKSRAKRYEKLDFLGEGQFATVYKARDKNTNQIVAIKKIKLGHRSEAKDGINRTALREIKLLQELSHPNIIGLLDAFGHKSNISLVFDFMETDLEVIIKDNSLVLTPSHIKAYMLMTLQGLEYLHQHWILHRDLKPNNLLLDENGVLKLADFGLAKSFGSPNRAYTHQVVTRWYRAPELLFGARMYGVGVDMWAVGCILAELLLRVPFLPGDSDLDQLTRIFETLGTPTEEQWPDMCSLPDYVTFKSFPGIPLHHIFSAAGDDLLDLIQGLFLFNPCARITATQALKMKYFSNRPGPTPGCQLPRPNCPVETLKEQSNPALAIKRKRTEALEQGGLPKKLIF

With `C[C@H](C(=O)Nc1ncc(Cl)s1)c1cccc(-c2cnc(NC(=O)/C=C/CN3CC4CC3CO4)cn2)c1` (stereo partly specified) [US12110299, Example 94] the IC50 was 14 nM.
